{"source": "ChEMBL document CHEMBL1201862", "about": "“PubChem BioAssay data set” (2004)", "test_in_all_cases": "NCI-60 cell line screen, 48 h", "key": {"MDA-MB-435": {"system": "MDA-MB-435"}, "OVCAR-5": {"system": "OVCAR-5"}, "RPMI-8226": {"system": "RPMI-8226"}, "NCI/ADR-RES": {"system": "NCI/ADR-RES"}, "HL-60": {"system": "HL-60"}, "MCF7": {"system": "MCF7"}, "SNB-19": {"system": "SNB-19"}, "SR": {"system": "SR"}, "Hs-578T": {"system": "Hs-578T"}, "K562": {"system": "K562"}, "MDA-N": {"system": "MDA-N"}, "T47D": {"system": "T47D"}, "PC-3": {"system": "PC-3"}, "HOP-92": {"system": "HOP-92"}, "MDA-MB-231": {"system": "MDA-MB-231"}, "DU-145": {"system": "DU-145"}, "BT-549": {"system": "BT-549"}, "A498": {"system": "A498"}, "SK-MEL-5": {"system": "SK-MEL-5"}, "HT-29": {"system": "HT-29"}, "UACC-257": {"system": "UACC-257"}, "KM12": {"system": "KM12"}, "OVCAR-4": {"system": "OVCAR-4"}, "Malme-3M": {"system": "Malme-3M"}, "CCRF-CEM": {"system": "CCRF-CEM"}, "CAKI-1": {"system": "CAKI-1"}, "LOX IMVI": {"system": "LOX IMVI"}, "786-0": {"system": "786-0"}, "UACC-62": {"system": "UACC-62"}, "SW-620": {"system": "SW-620"}, "SK-MEL-2": {"system": "SK-MEL-2"}, "SF-539": {"system": "SF-539"}, "HCT-15": {"system": "HCT-15"}, "RXF 393": {"system": "RXF 393"}, "SN12C": {"system": "SN12C"}, "OVCAR-3": {"system": "OVCAR-3"}, "HOP-62": {"system": "HOP-62"}, "EKVX": {"system": "EKVX"}, "HCC 2998": {"system": "HCC 2998"}, "NCI-H522": {"system": "NCI-H522"}, "SF-295": {"system": "SF-295"}, "A549": {"system": "A549"}, "U-251": {"system": "U-251"}, "M14": {"system": "M14"}, "NCI-H226": {"system": "NCI-H226"}, "IGROV-1": {"system": "IGROV-1"}, "SK-MEL-28": {"system": "SK-MEL-28"}, "HCT-116": {"system": "HCT-116"}, "MOLT-4": {"system": "MOLT-4"}, "SF-268": {"system": "SF-268"}, "NCI-H460": {"system": "NCI-H460"}, "ACHN": {"system": "ACHN"}, "SNB-75": {"system": "SNB-75"}, "UO-31": {"system": "UO-31"}, "NCI-H23": {"system": "NCI-H23"}, "COLO 205": {"system": "COLO 205"}, "TK-10": {"system": "TK-10"}, "OVCAR-8": {"system": "OVCAR-8"}, "SK-OV-3": {"system": "SK-OV-3"}}, "note": "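Growth conditions: 96-well plates. Treatment: test compound, 48 hours, 5 concentrations. Analysis: linear interpolation between bracketing concentrations; unreached endpoints set to highest concentration. At the GI50, growth is halved.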 Calls of active or inactive are those of the source. Rule as the data show it: active = GI50 up to about 1.1 µM and inactive = higher.", "data": [{"smiles": "C=C1C(=O)O[C@H]2C3OC3(C)CC/C=C(/C(=O)OC)[C@@H](OC(C)=O)[C@H](OC(=O)C3(C)OC3C)[C@H]12", "note": "(stereo not given in full)", "values": [{"measurement": "GI50", "setting": "MDA-MB-435", "value": "2.05 µM (inactive)"}, {"measurement": "GI50", "setting": "OVCAR-5", "value": "2.94 µM (inactive)"}, {"measurement": "GI50", "setting": "RPMI-8226", "value": "0.297 µM (active)"}, {"measurement": "GI50", "setting": "NCI/ADR-RES", "value": "3.73 µM (inactive)"}, {"measurement": "GI50", "setting": "HL-60", "value": "0.196 µM (active)"}, {"measurement": "GI50", "setting": "MCF7", "value": "1.12 µM (active)"}, {"measurement": "GI50", "setting": "SNB-19", "value": "> 7.5 µM (inactive)"}, {"measurement": "GI50", "setting": "SR", "value": "0.186 µM (active)"}, {"measurement": "GI50", "setting": "Hs-578T", "value": "7.8 µM (inactive)"}, {"measurement": "GI50", "setting": "K562", "value": "0.299 µM (active)"}, {"measurement": "GI50", "setting": "MDA-N", "value": "1.65 µM (inactive)"}, {"measurement": "GI50", "setting": "T47D", "value": "0.989 µM (active)"}, {"measurement": "GI50", "setting": "PC-3", "value": "2.17 µM (inactive)"}, {"measurement": "GI50", "setting": "HOP-92", "value": "1.61 µM (inactive)"}, {"measurement": "GI50", "setting": "MDA-MB-231", "value": "2.07 µM (inactive)"}, {"measurement": "GI50", "setting": "DU-145", "value": "13.6 µM (inactive)"}, {"measurement": "GI50", "setting": "BT-549", "value": "1.04 µM (active)"}]}, {"smiles": "C=CCOC1=C(OC(C)=O)C(C2COC(C)(C)O2)OC1=O", "note": "(stereo not given)", "values": [{"measurement": "GI50", "setting": "A498", "value": "> 100 µM (inactive)"}, {"measurement": "GI50", "setting": "SK-MEL-5", "value": "16.9 µM (inactive)"}, {"measurement": "GI50", "setting": "HT-29", "value": "19.9 µM (inactive)"}, {"measurement": "GI50", "setting": "MDA-MB-435", "value": "21.9 µM (inactive)"}, {"measurement": "GI50", "setting": "UACC-257", "value": "18.2 µM (inactive)"}, {"measurement": "GI50", "setting": "KM12", "value": "20.7 µM (inactive)"}, {"measurement": "GI50", "setting": "OVCAR-4", "value": "21.5 µM (inactive)"}, {"measurement": "GI50", "setting": "OVCAR-5", "value": "17.5 µM (inactive)"}, {"measurement": "GI50", "setting": "Malme-3M", "value": "18.8 µM (inactive)"}, {"measurement": "GI50", "setting": "RPMI-8226", "value": "22.1 µM (inactive)"}, {"measurement": "GI50", "setting": "CCRF-CEM", "value": "17.4 µM (inactive)"}, {"measurement": "GI50", "setting": "CAKI-1", "value": "1.95 µM (inactive)"}, {"measurement": "GI50", "setting": "LOX IMVI", "value": "11.7 µM (inactive)"}, {"measurement": "GI50", "setting": "NCI/ADR-RES", "value": "31.5 µM (inactive)"}, {"measurement": "GI50", "setting": "786-0", "value": "18.7 µM (inactive)"}, {"measurement": "GI50", "setting": "UACC-62", "value": "22.2 µM (inactive)"}, {"measurement": "GI50", "setting": "HL-60", "value": "19.6 µM (inactive)"}, {"measurement": "GI50", "setting": "SW-620", "value": "16.5 µM (inactive)"}, {"measurement": "GI50", "setting": "MCF7", "value": "16.7 µM (inactive)"}, {"measurement": "GI50", "setting": "SNB-19", "value": "> 100 µM (inactive)"}, {"measurement": "GI50", "setting": "SK-MEL-2", "value": "35.6 µM (inactive)"}, {"measurement": "GI50", "setting": "SF-539", "value": "33.2 µM (inactive)"}, {"measurement": "GI50", "setting": "HCT-15", "value": 16.3, "unit": "µM"}, {"measurement": "GI50", "setting": "RXF 393", "value": "21.2 µM (inactive)"}, {"measurement": "GI50", "setting": "Hs-578T", "value": "33.4 µM (inactive)"}, {"measurement": "GI50", "setting": "SN12C", "value": "24.5 µM (inactive)"}, {"measurement": "GI50", "setting": "OVCAR-3", "value": "17.9 µM (inactive)"}, {"measurement": "GI50", "setting": "HOP-62", "value": "> 100 µM (inactive)"}, {"measurement": "GI50", "setting": "K562", "value": "18 µM (inactive)"}, {"measurement": "GI50", "setting": "MDA-N", "value": "29.7 µM (inactive)"}, {"measurement": "GI50", "setting": "EKVX", "value": "20.1 µM (inactive)"}, {"measurement": "GI50", "setting": "HCC 2998", "value": "38.2 µM (inactive)"}, {"measurement": "GI50", "setting": "T47D", "value": "18.5 µM (inactive)"}, {"measurement": "GI50", "setting": "NCI-H522", "value": "2.19 µM (inactive)"}, {"measurement": "GI50", "setting": "SF-295", "value": "36 µM (inactive)"}, {"measurement": "GI50", "setting": "A549", "value": "24 µM (inactive)"}, {"measurement": "GI50", "setting": "U-251", "value": "26.5 µM (inactive)"}, {"measurement": "GI50", "setting": "M14", "value": "21.2 µM (inactive)"}, {"measurement": "GI50", "setting": "NCI-H226", "value": "95.3 µM (inactive)"}, {"measurement": "GI50", "setting": "PC-3", "value": "70 µM (inactive)"}, {"measurement": "GI50", "setting": "IGROV-1", "value": "31.6 µM (inactive)"}, {"measurement": "GI50", "setting": "SK-MEL-28", "value": "22.2 µM (inactive)"}, {"measurement": "GI50", "setting": "HCT-116", "value": "17.6 µM (inactive)"}, {"measurement": "GI50", "setting": "HOP-92", "value": "17.7 µM (inactive)"}, {"measurement": "GI50", "setting": "MOLT-4", "value": "21.6 µM (inactive)"}, {"measurement": "GI50", "setting": "SF-268", "value": "31.6 µM (inactive)"}, {"measurement": "GI50", "setting": "NCI-H460", "value": "22 µM (inactive)"}, {"measurement": "GI50", "setting": "ACHN", "value": "17.9 µM (inactive)"}, {"measurement": "GI50", "setting": "SNB-75", "value": "71.3 µM (inactive)"}, {"measurement": "GI50", "setting": "MDA-MB-231", "value": "17.1 µM (inactive)"}, {"measurement": "GI50", "setting": "UO-31", "value": "18.6 µM (inactive)"}, {"measurement": "GI50", "setting": "DU-145", "value": "36.6 µM (inactive)"}, {"measurement": "GI50", "setting": "NCI-H23", "value": "17.8 µM (inactive)"}, {"measurement": "GI50", "setting": "COLO 205", "value": "20 µM (inactive)"}, {"measurement": "GI50", "setting": "TK-10", "value": "29.7 µM (inactive)"}, {"measurement": "GI50", "setting": "BT-549", "value": "27.4 µM (inactive)"}, {"measurement": "GI50", "setting": "OVCAR-8", "value": "38.8 µM (inactive)"}, {"measurement": "GI50", "setting": "SK-OV-3", "value": "> 100 µM (inactive)"}]}]}
